Measurements as given in paper PMC11350758, “Development of Xanthoangelol-Derived Compounds with Membrane-Disrupting Effects against Gram-Positive Bacteria” (Antibiotics, 2024).
Values after ≈ are worked out from the molar mass of the structure shown.

Columns and labels:
[1] = tested on: Gram-positive strains tested; experiment: MIC, summary over the Gram-positive strains tested; assay type: cell-based; conditions: read-out: MICs against the Gram-positive strains tested, range over the Gram-positive panel
Protocol: (§1) All target derivatives were assessed for their in vitro antibacterial activities using a broth microdilution assay to test their minimum inhibitory concentrations (MICs) against six Gram-positive strains (S. aureus ATCC31007, S. aureus ATCC25923, S. aureus ATCC43300, E. faecalis ATCC29212, B. subtilis ATCC9372, and S. epidermidis ATCC12228) and four Gram-negative strains (A. baumannii ATCC19606, K. pneumonia ATCC10031, E. coli ATCC25922, and P. aeruginosa ATCC27853). These compounds were also evaluated for their hemolytic activities and membrane selectivity by determining their HC50 (the concentration required to lyse 50% of red blood cells) and SI (HC50/MICs) values, respectively, and vancomycin was used as the positive drug.
(§2) MICs of the derivatives were determined by the micro broth dilution method according to the American Clinical and Laboratory Standards Institute (CLSI) standards. Briefly, 2-fold serial dilutions of target compounds were prepared in 96-well plates containing TSB broth. An equal volume of bacterial suspension (10^6 CFU/mL) was then pipetted into each well, and the mixture was incubated at 37 °C for 24 h. […] All biological experiments were repeated three times.

[2] = tested on: Enterococcus faecalis ATCC29212, vancomycin-susceptible strain; experiment: MIC, broth microdilution; assay type: cell-based; conditions: Enterococcus faecalis ATCC29212; read-out: MIC E. f. 29212
Protocol: as §1, §2

[3] = tested on: Acinetobacter baumannii ATCC19606; experiment: MIC, broth microdilution; assay type: cell-based; conditions: Acinetobacter baumannii ATCC19606; read-out: MIC A. b. 19606
Protocol: as §1, §2

[4] = tested on: Staphylococcus aureus ATCC31007, penicillin-resistant strain; experiment: MIC, broth microdilution; assay type: cell-based; conditions: Staphylococcus aureus ATCC31007; read-out: MIC S. a. 31007
Protocol: as §1, §2

[5] = tested on: Staphylococcus aureus ATCC25923, erythromycin-susceptible strain; experiment: MIC, broth microdilution; assay type: cell-based; conditions: Staphylococcus aureus ATCC25923; read-out: MIC S. a. 25923
Protocol: as §1, §2

[6] = tested on: Staphylococcus epidermidis ATCC12228, erythromycin-susceptible strain; experiment: MIC, broth microdilution; assay type: cell-based; conditions: Staphylococcus epidermidis ATCC12228; read-out: MIC S. e. 12228
Protocol: as §1, §2

[7] = tested on: Escherichia coli ATCC25922, penicillin-susceptible strain; experiment: MIC, broth microdilution; assay type: cell-based; conditions: Escherichia coli ATCC25922; read-out: MIC E. c. 25922
Protocol: as §1, §2

[8] = tested on: Pseudomonas aeruginosa ATCC27853, penicillin-susceptible strain; experiment: MIC, broth microdilution; assay type: cell-based; conditions: Pseudomonas aeruginosa ATCC27853; read-out: MIC P. a. 27853
Protocol: as §1, §2

[9] = tested on: Bacillus subtilis ATCC9372, penicillin-susceptible strain; experiment: MIC, broth microdilution; assay type: cell-based; conditions: Bacillus subtilis ATCC9372; read-out: MIC B. s. 9372
Protocol: as §1, §2

[10] = tested on: Klebsiella pneumonia ATCC10031; experiment: MIC, broth microdilution; assay type: cell-based; conditions: Klebsiella pneumoniae; Klebsiella pneumonia ATCC10031; read-out: MIC K. p. 10031
Protocol: as §1, §2

[11] = tested on: Staphylococcus aureus ATCC43300, methicillin-resistant strain; experiment: microbe, parasite or virus in culture; assay type: cell-based; conditions: ATCC 43300 / MRSA; Staphylococcus aureus ATCC43300 (MRSA); read-out: MIC S. a 43300
Protocol: as §1, §2

[12] = tested on: red blood cells; experiment: Hemolysis assay; assay type: cell-based, Sheep; conditions: concentration required to lyse 50% of red blood cells; 37 °C, 1 h
Protocol: as §1
To further detect the hemolytic toxicity and therapeutic potential of these derivatives, we proceeded to examine the hemolytic activities and membrane selectivity of these derivatives. The HC50 value was defined as the concentration needed for a compound to lyse 50% of red blood cells, and it is often used to evaluate the hemolytic toxicity to eukaryotic cells. […] The selectivity index (SI) was calculated by HC50/MICs of S. aureus ATCC43300 and was used to assess the potency and safety of the compounds. […] Thus, compound 9h was selected as a representative molecule for the in-depth in vitro and in vivo studies.
Sheep blood was used to isolate red blood cells (RBCs), which were then resuspended in 1× PBS (5%). The compounds were dissolved in PBS to give an initial concentration of 5.12 mg/mL, compound solution (100 μL) was added to the first well of a 96-well plate, two-fold serial dilutions of compounds were prepared in 96-well plates, and then 150 μL of 5% RBC suspension was added to each well. This was followed by incubation at 37 °C for 1 h. After incubation, the plate was centrifuged (3500 rpm, 5 min), and 100 μL of supernatant solution from each well was carefully pipetted into a new plate. The absorbance values were measured at 540 nm. Erythrocyte hemolysis rate = (Absorbancecompound – Absorbance negative control)/(Absorbance1% Triton X-100 − Absorbance negative control) × 100%. All biological experiments were repeated three times.

[13] = tested on: Enterococcus faecalis ATCC51299, vancomycin-resistant strain; experiment: MIC, broth microdilution; assay type: cell-based; conditions: Enterococcus faecalis ATCC51299, vancomycin-resistant; read-out: MIC E. f. 51299
Protocol: as §2

[14] = tested on: Enterococcus faecium ATCC51559, vancomycin-resistant strain; experiment: MIC, broth microdilution; assay type: cell-based; conditions: Enterococcus faecium ATCC51559, vancomycin-resistant; read-out: MIC E. f. 51559
Protocol: as §2

[15] = tested on: S. aureus; experiment: MIC, summary over the S. aureus strains tested; assay type: cell-based; conditions: Staphylococcus aureus; over the three S. aureus strains tested; read-out: MICs against S. aureus
Protocol: as §1, §2

[16] = tested on: S. aureus ATCC43300 biofilm formation; conditions: 4 μg/mL
Protocol: Bacterial biofilms created by the aggregation of bacteria is considered as one of the main reasons for the development of drug resistance. […] Subsequently, we further assessed the efficiency of 9h to eradicate the preformed biofilm. Matured S. aureus biofilm (grown for 24 h) was treated with compound 9h, and the rate of biofilm disruption was then assessed by the crystal violet staining assay.
Biofilm inhibition assay: S. aureus ATCC43300 was cultured (37 °C, 200 rpm) in MHB broth for 5 h and diluted to 1 × 10^6 CFU/mL. […] The planktonic supernatant cells were discarded and washed with PBS three times. Then, methanol (150 µL) was added to each well for 30 min. After discarding methanol, 0.1% crystal violet solution (150 µL) was added, and biofilms were stained for 15 min. Next, crystal violet solution was removed and washed with PBS three times. Finally, ethanol (150 µL) was pipetted into the wells, and the OD values were measured at 575 nm. The biofilm inhibition (%) = (ODcompound − ODblank)/(ODpositive control − ODblank) × 100%.

Row | SMILES | MIC [1] [µg/mL] | MIC [2] [µg/mL] | MIC [3] [µg/mL] | MIC [4] [µg/mL] | MIC [5] [µg/mL] | MIC [6] [µg/mL] | MIC [7] [µg/mL] | MIC [8] [µg/mL] | MIC [9] [µg/mL] | MIC [10] [µg/mL] | MIC [11] [µg/mL] | HC50 [12] [µg/mL] | MIC [13] [µg/mL] | MIC [14] [µg/mL] | MIC [15] [µg/mL] | inhibition of S. aureus biofilm formation [16] [%]
1 | CC(=O)c1c(OCCCSC(=N)N)c2c(c3c1OC(C)(CCC=C(C)C)C=C3)OC(C)(CCC=C(C)C)C=C2 (stereo not shown) [Compound 9e, 2-(3-((6-Acetyl-2,8-dimethyl-2,8-bis(4-methylpent-3-en-1-yl)-2H,8H-pyrano[2,3-f]chromen-5-yl)oxy)propyl)isothiouronium] | > 64 | 64 (≈ 116 µM) | > 128 | 128 (≈ 232 µM) | 8 (≈ 14.5 µM) | 128 (≈ 232 µM) | > 128 | > 128 | 64 (≈ 116 µM) | > 128 | 64 (≈ 116 µM) | >1280 | > 128 | > 128 |  | 
2 | CC(=O)c1ccc2c(c1OCCCN(C)CC(C)(C)CN(C)C)C=CC(C)(CCC=C(C)C)O2 (stereo not shown) [Compound 5g, 1-(5-(3-((3-(Dimethylamino)-2,2-dimethylpropyl)(methyl)amino)propoxy)-2-methyl-2-(4-methylpent-3-en-1-yl)-2H-chromen-6-yl)ethan-1-one] |  | 8 (≈ 17 µM) | 8 (≈ 17 µM) | 8 (≈ 17 µM) | 8 (≈ 17 µM) | 4 (≈ 8.5 µM) | 16 (≈ 34 µM) | 128 (≈ 272 µM) | 8 (≈ 17 µM) | 4 (≈ 8.5 µM) | 8 (≈ 17 µM) | 183.1 | 32 (≈ 68 µM) | 16 (≈ 34 µM) | 8 (≈ 17 µM) | 
3 | CC[N+](CC)(CC)CCCOc1c(C(C)=O)ccc2c1C=CC(C)(CCC=C(C)C)O2 (stereo not shown) [Compound 5a, 3-((6-Acetyl-2-methyl-2-(4-methylpent-3-en-1-yl)-2H-chromen-5-yl)oxy)-N,N,N-triethylpropan-1-aminium] |  | 64 | > 128 | 128 | 8 | 64 | > 128 | > 128 | 64 | 128 | 64 | 571.5 | 16 | 16 | 8 to 128 | 
4 | CC[C@H](C)[C@H](NC(=O)[C@H](CCCCN)NC(=O)[C@H](CCC(=O)O)NC(=O)[C@H](CCCCN)NC(=O)[C@H](CO)NC(=O)[C@H](CCCCN)NC(=O)[C@H](CCCNC(=N)N)NC(=O)[C@H](Cc1ccccc1)NC(=O)[C@H](Cc1ccccc1)NC(=O)[C@H](CC(=O)O)NC(=O)CNC(=O)[C@H](CC(C)C)NC(=O)[C@@H](N)CC(C)C)C(=O)NCC(=O)N[C@@H](CCCCN)C(=O)N[C@@H](CCC(=O)O)C(=O)N[C@@H](Cc1ccccc1)C(=O)N[C@@H](CCCCN)C(=O)N[C@@H](CCCNC(=N)N)C(=O)N[C@H](C(=O)N[C@H](C(=O)N[C@@H](CCC(N)=O)C(=O)N[C@@H](CCCNC(=N)N)C(=O)N[C@H](C(=O)N[C@@H](CCCCN)C(=O)N[C@@H](CC(=O)O)C(=O)N[C@@H](Cc1ccccc1)C(=O)N[C@@H](CC(C)C)C(=O)N[C@@H](CCCNC(=N)N)C(=O)N[C@@H](CC(N)=O)C(=O)N[C@@H](CC(C)C)C(=O)N[C@H](C(=O)N1CCC[C@H]1C(=O)N[C@@H](CCCNC(=N)N)C(=O)N[C@H](C(=O)N[C@@H](CCC(=O)O)C(=O)N[C@@H](CO)C(=O)O)[C@@H](C)O)C(C)C)[C@@H](C)CC)C(C)C)[C@@H](C)CC [LL-37, reference compound] |  |  |  |  |  |  |  |  |  |  |  |  |  |  |  | 55.41
5 | CCN(CC)CCCOc1c(C(C)=O)ccc2c1C=CC(C)(CCC=C(C)C)O2 (stereo not shown) [Compound 5c, 1-(5-(3-(Diethylamino)propoxy)-2-methyl-2-(4-methylpent-3-en-1-yl)-2H-chromen-6-yl)ethan-1-one] |  | 32 (≈ 80.1 µM) | 32 (≈ 80.1 µM) | 32 (≈ 80.1 µM) | 32 (≈ 80.1 µM) | 16 (≈ 40 µM) | 128 (≈ 320 µM) | 32 (≈ 80.1 µM) | 16 (≈ 40 µM) | 16 (≈ 40 µM) | 32 (≈ 80.1 µM) | 324.1 | 128 (≈ 320 µM) | 64 (≈ 160 µM) | 8 to 128 (≈ 20 to 320 µM) | 
6 | CC(=O)c1c(OCCCN2CC(C)OC(C)C2)c2c(c3c1OC(C)(CCC=C(C)C)C=C3)OC(C)(CCC=C(C)C)C=C2 (stereo not shown) [Compound 9d, 1-(5-(3-(2,6-Dimethylmorpholino)propoxy)-2,8-dimethyl-2,8-bis(4-methylpent-3-en-1-yl)-2H,8H-pyrano[2,3-f]chromen-6-yl)ethan-1-one] | > 64 | > 128 | > 128 | > 128 | > 128 | > 128 | > 128 | > 128 | > 128 | > 128 | > 128 | >1280 | > 128 | > 128 |  | 
7 | CCN(CC)CCCOc1c2c(c3c(c1C(C)=O)OC(C)(CCC=C(C)C)C=C3)OC(C)(CCC=C(C)C)C=C2 (stereo not shown) [Compound 9c, 1-(5-(3-(Diethylamino)propoxy)-2,8-dimethyl-2,8-bis(4-methylpent-3-en-1-yl)-2H,8H-pyrano[2,3-f]chromen-6-yl)ethan-1-one] |  | 1 (≈ 1.82 µM) | > 128 | 2 (≈ 3.64 µM) | 2 (≈ 3.64 µM) | 1 (≈ 1.82 µM) | > 128 | > 128 | 2 (≈ 3.64 µM) | > 128 | 4 (≈ 7.28 µM) | 187.6 | 8 (≈ 14.6 µM) | 4 (≈ 7.28 µM) | 2 to 4 (≈ 3.64 to 7.28 µM) | 
